Holding throughout (type): cell-based
In test [1] the test system is IL-1β production in human whole blood. As to the kind of experiment: Endotoxin-induced IL-1β production from human whole blood. The note with it: LPS 100 ng/ml, 3 hours, read-out: HWB IL-1β IC50. The procedure:
(§1) Human whole blood (HWB; 25-45 ml) was collected from an NSAID-free donor into vacutainer collection tubes containing sodium heparin (10 ml, 158 USP units), pooled and rocked gently before being distributed into each well of a 96-well round bottom tissue culture plate ([…]). Compounds ([…]/well, concentration response) are added and mixed gently for 15-20 seconds using a disposable 96 polypropylene pin tool before the plates are incubated at 37° C./5% CO2 for 1 hour. The HWB is stimulated with LPS (100 ng/ml) in a final assay volume of […]. After 3 hours, the plates are spun at 240×g for 5 minutes to pellet the red cells. The plasma is carefully transferred to another 96-well round bottom plate and diluted 2-fold with assay media (DMEM containing 10% fetal bovine serum (FBS) plus antibiotics). Finally, the diluted plasma ([…]/well) is transferred to Meso Scale detection plates for determination of IL-1, IL-6 or TNFα.

For test [2], the system named is IL-6 production in A549 cells. As to the kind of experiment: IL-1-induced IL-6 production in A549 cells. To be noted: Homo sapiens, 3 hours stimulation. The protocol:
Adherent A549 cells (approximately 5 million per T75 cm^2 tissue culture flask) are grown in F-12K media containing 10% fetal bovine serum (FBS) plus antibiotics. The cells are trypsinized, washed and resuspended at 0.3 million per milliliter. A549 cells are then distributed into each well of a 96-well flat bottom tissue culture plate ([…]) and the 30,000 cells/well are allowed to recover, incubated, overnight. On the day of the assay fresh media ([…]) is added to the plates followed by the addition of compound ([…]/well, concentration response) for 1 hour. […] After 3 hours, cultured media ([…]/well) is transferred from the assay plate to a Meso Scale custom coated detection plate for determination of IL-6 levels. […] Read buffer ([…]/well, MSD 4× read buffer diluted 4-fold with dH2O) is added and the plate is read using the Meso Scale Sector Imager 6000. Upon electrical stimulation of the detection plate, co-reactants in the read buffer enhance an electrochemical reaction resulting in the release of energy in the form of light. This signal is captured by an internal CCD camera and quantitated. Viability of A549 cells is determined using an MTT assay. […] Isopropanol ([…]) is added to solubilize the resulting formazan crystals and the plate is read at 570 nm/650 nm using a Molecular Devices SpectraMax spectrophotometer.

The test system of test [3] is TNFα production in U937 cells. As to the kind of experiment: LPS-induced TNFα production in differentiated U937 cells. The note with it: Homo sapiens, U-937, LPS 0.1 μg/mL for 4 hours. The procedure:
Therefore, inhibition of the p38 MAPK pathway will lower the inflammatory response by decreasing biosynthesis of proinflammatory cytokines. […] Evaluation of the potency and efficacy of p38 inhibitors to block cytokine production is carried out using the human U937 cell line. The U937 human pre-monocytic cell line is obtained from the American Type Culture Collection (Rockville, Md.). These cells are differentiated to a monocytic/macrophage phenotype as described by Burnette (Burnette et al, (2009). SD0006: a potent, selective and orally available inhibitor of p38 kinase, Pharmacology 84(1):42-60). Differentiated U937 cells are seeded into 96-well tissue culture plates (200,000 cells/well) in complete media. After 24 hours, the cells are pretreated for 60 minutes in the presence or absence of compound and then stimulated with LPS (0.1 μg/mL) for 4 hours. Culture media are then collected for determination of TNFα, IL-6 or IL-1β levels by ELISA. Cytokine concentrations are extrapolated from recombinant protein standard curves using a four-parameter logistic model and solving for IC50 after iterating to the best least-squares fit.

For test [4], the system named is IL-6 production in human whole blood. As to the kind of experiment: Endotoxin-induced IL-6 production from human whole blood. The note with it: LPS 100 ng/ml, 3 hours, read-out: HWB IL-6 IC50. The procedure: as §1
Test [5] concerns TNFα production in human whole blood. As to the kind of experiment: Endotoxin-induced TNFα production from human whole blood. To be noted: LPS 100 ng/ml, 3 hours, read-out: HWB TNFα IC50. The protocol:
as §1

One may read the IC50 as the concentration that gives 50% inhibition.

With `Cc1cnc(-c2ccnc(C(C)(C)O)n2)cc1-n1c(C)cc(OCc2ncc(F)cc2F)c(Cl)c1=O` [Compound 49, 3-chloro-4-((3,5-difluoropyridin-2-yl)methoxy)-2′-(2-(2-hydroxypropan-2-yl)pyrimidin-4-yl)-5′,6-dimethyl-2H-[1,4′-bipyridin]-2-one], the IC50 in test [1] stood at 6 nM; in test [2] it was 1.8 nM; in test [3], 1.6 nM; in test [4] it was 35 nM; in test [5], 13 nM.

The values above are taken from patent US9115089B2, “Methyl/fluoro-pyridinyl-methoxy substituted pyridinone-pyridinyl compounds and fluoro-pyrimidinyl-methoxy substituted pyridinone-pyridinyl compounds” (CONFLUENCE LIFE SCIENCES, INC., priority 2013, dated 2015).
